Source: patent publication US9884063B2, “Amido-substituted azole compounds” (Bayer Pharma Aktiengesellschaft, priority 2014, dated 2018)

Columns and labels:
TNKS2 = target: T1, TNKS2 (Homo sapiens, UniProt Q9H2K2); experiment: TNKS2 Assay 1 (TNKS2 Histone Ribosylation Assay Kit, biotin-labeled NAD+); format: biochemical; details: chemiluminescent readout, 384 well
T1 sequence (Q9H2K2 1-1166): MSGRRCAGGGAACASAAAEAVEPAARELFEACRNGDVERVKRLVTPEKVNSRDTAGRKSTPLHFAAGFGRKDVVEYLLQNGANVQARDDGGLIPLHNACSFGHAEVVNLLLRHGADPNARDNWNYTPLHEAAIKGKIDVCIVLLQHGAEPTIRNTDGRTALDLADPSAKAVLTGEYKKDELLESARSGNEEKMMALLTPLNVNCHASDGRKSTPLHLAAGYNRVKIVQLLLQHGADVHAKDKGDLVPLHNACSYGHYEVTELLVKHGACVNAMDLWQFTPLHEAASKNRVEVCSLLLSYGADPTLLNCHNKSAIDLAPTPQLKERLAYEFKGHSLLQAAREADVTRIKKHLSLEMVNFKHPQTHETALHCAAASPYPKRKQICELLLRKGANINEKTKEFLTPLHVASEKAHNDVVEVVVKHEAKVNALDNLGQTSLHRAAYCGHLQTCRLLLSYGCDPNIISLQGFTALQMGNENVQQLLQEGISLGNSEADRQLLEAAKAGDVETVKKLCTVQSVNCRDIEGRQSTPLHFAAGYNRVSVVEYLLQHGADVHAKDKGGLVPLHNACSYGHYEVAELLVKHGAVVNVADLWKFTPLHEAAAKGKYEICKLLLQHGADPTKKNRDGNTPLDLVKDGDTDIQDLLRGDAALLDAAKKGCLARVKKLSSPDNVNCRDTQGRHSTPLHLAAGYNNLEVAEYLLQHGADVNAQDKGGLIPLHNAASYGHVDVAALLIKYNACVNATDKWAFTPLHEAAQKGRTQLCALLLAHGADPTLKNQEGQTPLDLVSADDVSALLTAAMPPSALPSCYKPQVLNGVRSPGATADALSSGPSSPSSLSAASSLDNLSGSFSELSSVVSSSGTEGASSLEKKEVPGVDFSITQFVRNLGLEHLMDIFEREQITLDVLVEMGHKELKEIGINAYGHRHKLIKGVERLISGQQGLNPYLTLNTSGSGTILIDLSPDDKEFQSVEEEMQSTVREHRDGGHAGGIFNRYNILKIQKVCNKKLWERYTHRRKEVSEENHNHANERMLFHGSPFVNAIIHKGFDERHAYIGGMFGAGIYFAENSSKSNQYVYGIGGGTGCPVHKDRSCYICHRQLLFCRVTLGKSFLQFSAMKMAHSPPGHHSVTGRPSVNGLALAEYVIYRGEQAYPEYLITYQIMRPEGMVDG
Description: The potency of the compounds according to the invention was assessed applying an in vitro inhibition assay. The TNKS2 catalyzed NAD^+-dependent ribosylation of a suitable protein substrate was detected using a commercially available biotin/streptavidin binding based assay format [TNKS2 Histone Ribosylation Assay Kit (Biotin-labeled NAD+), Catalog #80572; BPS Bioscience, San Diego, USA]. Here, the incorporation of a biotin-labeled NAD+ during the TNKS2 catalyzed ribosylation reaction was detected with a streptavidin-HRP coupled chemi-luminescent readout. The intensity of the readout signal is proportional to the incorporated NAD^+. Inhibition of TNKS2 leads to a decreased incorporation of NAD^+ and consequently to a lower readout signal intensity. The concentration of a test compound which inhibits the enzyme activity by 50% (corresponds to half of the normed readout signal intensity) is reported as IC50.
The assay was conducted in a 384 well MTP format according to the manufacturer's protocol [bpsbioscience.com/poly-adp-ribose-polymerase/assay-kit/tnks2-histone-ribosylation-assay-kit-biotin-labeled-nad-80572 referencing: Brown, J. A., Marala, R. B. J. Pharmacol. Toxicol. Methods 2002 47:137-41]. and using a BMG Pherastar MTP reader [BMG-Labtech, Offenburg, Germany].

[1] = test system: HEK293 FOP control reporter cell line; experiment: HEK293 FOP Assay (FOP control vector luciferase reporter); format: cell-based; details: Homo sapiens
How it was run: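 Compound series 50 μM to 15 nM, 3.16-fold steps, were diluted in CAFTY buffer (pH 7.4, 2 mM Ca2+, 0.01% BSA) and tested alongside the TOP reporter line. Human Wnt-3a was added at 2500–5 ng/ml in two-fold steps. The control HEK293 line stably holds an FOP vector whose TCF elements are randomized and non-functional.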

[2] = HEK293 FOP control reporter cell line, 16 hours incubation, compound dilution series 50 μM to 15 nM
[3] = HEK293 FOP control reporter cells, 16 hours, luciferase, dilution series from 50 μM

SMILES	IC50 (TNKS2; Table 2) [nM]	IC50 (TNKS2; first table) [nM]	IC50 [1, 2] [nM]	IC50 [1, 3] [nM]
CNC(=O)c1nc[nH]c1C(=O)Nc1ccc(NC(=O)c2c(-c3ccccc3)nn(C)c2Cl)cc1 [Example 17, N^5-(4-{[(5-chloro-1-methyl-3-phenyl-1H-pyrazol-4-yl)carbonyl]amino}phenyl)-N^4-methyl-1H-imidazole-4,5-dicarboxamide]	2200	2200	26000	26000
O=C(Nc1ccc(NC(=O)c2[nH]cnc2C(=O)NCc2ccccc2)cc1)c1ccc(F)cc1Cl [Example 18, N^4-benzyl-N^5-{4-[(2-chloro-4-fluorobenzoyl)amino]phenyl}-1H-imidazole-4,5-dicarboxamide]	850	850		≥ 50000
CC(NC(=O)c1ncoc1C(=O)Nc1ccc(NC(=O)c2ccc(F)cc2Cl)cc1)c1ccccc1 (centres unmarked) [Example 8, N^5-{4-[(2-chloro-4-fluorobenzoyl)amino]phenyl}-N^4-(1-phenylethyl)-1,3-oxazole-4,5-dicarboxamide]	7000	7000		≥ 50000
CNC(=O)c1nc[nH]c1C(=O)Nc1ccc(NC(=O)c2ccc(N(C)C)cc2Cl)cc1 [Example 4, N^5-(4-{[2-chloro-4-(dimethylamino)benzoyl]amino}phenyl)-N^4-methyl-1H-imidazole-4,5-dicarboxamide]	90	90	42000	42000
CNC(=O)c1[nH]cnc1C(=O)Nc1ccc(NC(=O)c2cc(Cl)sc2Cl)cc1 [Example 213, N^4-(4-{[(2,5-dichloro-3-thienyl)carbonyl]amino}phenyl)-N^5-methyl-1H-imidazole-4,5-dicarboxamide]	> 100000		8400	
CC(C)NC(=O)c1ncoc1C(=O)Nc1ccc(NC(=O)c2ccc(F)cc2Cl)cc1 [Example 15, N^5-{4-[(2-chloro-4-fluorobenzoyl)amino]phenyl}-N^4-isopropyl-1,3-oxazole-4,5-dicarboxamide]	1100	1140		≥ 50000
CNC(=O)c1ncoc1C(=O)Nc1ccc(NC(=O)c2ccc(F)cc2Cl)cc1 [Example 11, N^5-{4-[(2-chloro-4-fluorobenzoyl)amino]phenyl}-N^4-methyl-1,3-oxazole-4,5-dicarboxamide]	90	120		≥ 50000
CNC(=O)c1nc[nH]c1C(=O)Nc1ccc(NC(=O)c2ccc(OCCN(C)C)cc2Cl)cc1 [Example 25, N^5-[4-({2-chloro-4-[2-(dimethylamino)ethoxy]benzoyl}amino)phenyl]-N^4-methyl-1H-imidazole-4,5-dicarboxamide]	60	60	34000	34000
CNC(=O)c1nc[nH]c1C(=O)Nc1ccc(NC(=O)c2ccc(F)cc2Cl)c(C)c1 [Example 5, N^5-{4-[(2-chloro-4-fluorobenzoyl)amino]-3-methylphenyl}-N^4-methyl-1H-imidazole-4,5-dicarboxamide]	470	470	11000	11000
CNC(=O)c1nc[nH]c1C(=O)Nc1ccc(NC(=O)c2ccncc2Cl)cc1 [Example 6, N^5-{4-[(3-chloroisonicotinoyl)amino]phenyl}-N^4-methyl-1H-imidazole-4,5-dicarboxamide]	50	50		≥ 50000
CNC(=O)c1nc[nH]c1C(=O)Nc1ccc(NC(=O)c2c(C)cc(F)cc2C)cc1 [Example 23, N^5-{4-[(4-fluoro-2,6-dimethylbenzoyl)amino]phenyl}-N^4-methyl-1H-imidazole-4,5-dicarboxamide]	340	340		≥ 50000
CNC(=O)c1nc[nH]c1C(=O)Nc1ccc(NC(=O)c2ccc(N3CCCC3)cc2F)cc1 [Example 3, N^5-(4-{[2-fluoro-4-(pyrrolidin-1-yl)benzoyl]amino}phenyl)-N^4-methyl-1H-imidazole-4,5-dicarboxamide]	30000			≥ 50000
